Where “and” joins values, the source holds several entries; their conditions need not be identical. Equal values may be shown once. ± gives the expanded uncertainty stated by the source.
Conditions: Liquid, transient hot wire

O=C(C(F)(F)C(F)(F)F)C(F)(C(F)(F)F)C(F)(F)F [dodecafluoro-2-methylpentan-3-one]
Conditions | thermal conductivity
242.34 K, 5849 kPa | 0.06998 ± 0.0014 W/m/K
242.34 K, 5853 kPa | 0.06965 ± 0.0014 W/m/K
242.35 K, 208 kPa | 0.06798 ± 0.0014 W/m/K
242.35 K, 212 kPa | 0.06825 ± 0.0014 W/m/K
242.58 K, 60304 kPa | 0.08223 ± 0.0017 W/m/K
242.58 K, 60314 kPa | 0.08199 ± 0.0017 W/m/K
242.59 K, 33710 kPa | 0.0767 ± 0.0016 W/m/K
242.59 K, 50797 kPa | 0.08019 ± 0.0016 W/m/K
242.59 K, 50816 kPa | 0.07983 ± 0.0016 W/m/K
242.59 K, 68418 kPa | 0.08363 ± 0.0017 W/m/K
242.59 K, 68434 kPa | 0.08369 ± 0.0017 W/m/K
242.6 K, 33703 kPa | 0.07658 ± 0.0016 W/m/K
242.6 K, 41984 kPa | 0.07877 ± 0.0016 W/m/K
242.6 K, 41989 kPa | 0.07848 ± 0.0016 W/m/K
242.67 K, 25698 kPa | 0.07459 ± 0.0015 W/m/K
242.68 K, 25706 kPa | 0.07494 ± 0.0015 W/m/K
242.77 K, 18756 kPa | 0.073 ± 0.0015 W/m/K
242.77 K, 18761 kPa | 0.07312 ± 0.0015 W/m/K
242.79 K, 12031 kPa | 0.07146 ± 0.0015 W/m/K
242.8 K, 12030 kPa | 0.07148 ± 0.0015 W/m/K
242.91 K, 5853 kPa | 0.06968 ± 0.0014 W/m/K
242.91 K, 5856 kPa | 0.06976 ± 0.0014 W/m/K
242.92 K, 207 kPa | 0.06801 ± 0.0014 W/m/K
242.93 K, 208 kPa | 0.06804 ± 0.0014 W/m/K
243.11 K, 60298 kPa | 0.08226 ± 0.0017 W/m/K
243.11 K, 68406 kPa | 0.084 ± 0.0017 W/m/K
243.11 K, 68416 kPa | 0.08398 ± 0.0017 W/m/K
243.12 K, 60300 kPa | 0.082 ± 0.0017 W/m/K
243.13 K, 50796 kPa | 0.08047 ± 0.0016 W/m/K
243.13 K, 50797 kPa | 0.08042 ± 0.0016 W/m/K
243.16 K, 41981 kPa | 0.07861 ± 0.0016 W/m/K
243.16 K, 41982 kPa | 0.07868 ± 0.0016 W/m/K
243.17 K, 33693 kPa | 0.07674 ± 0.0016 W/m/K
243.17 K, 33696 kPa | 0.07679 ± 0.0016 W/m/K
243.25 K, 25695 kPa | 0.07494 ± 0.0015 W/m/K
243.26 K, 25691 kPa | 0.07494 ± 0.0015 W/m/K
243.36 K, 18758 kPa | 0.07321 ± 0.0015 W/m/K
243.36 K, 18761 kPa | 0.07324 ± 0.0015 W/m/K
243.39 K, 12032 kPa | 0.07131 ± 0.0015 W/m/K
243.41 K, 12030 kPa | 0.07139 ± 0.0015 W/m/K
243.52 K, 5859 kPa | 0.0695 ± 0.0014 W/m/K and 0.06954 ± 0.0014 W/m/K
243.55 K, 209 kPa | 0.06795 ± 0.0014 W/m/K
243.56 K, 209 kPa | 0.06794 ± 0.0014 W/m/K
243.69 K, 68395 kPa | 0.08376 ± 0.0017 W/m/K
243.69 K, 68403 kPa | 0.08352 ± 0.0017 W/m/K
243.7 K, 60284 kPa | 0.08212 ± 0.0017 W/m/K
243.71 K, 60287 kPa | 0.08216 ± 0.0017 W/m/K
243.73 K, 50783 kPa | 0.08028 ± 0.0016 W/m/K
243.74 K, 50794 kPa | 0.08029 ± 0.0016 W/m/K
243.77 K, 41976 kPa | 0.07861 ± 0.0016 W/m/K
243.77 K, 41985 kPa | 0.07849 ± 0.0016 W/m/K
243.8 K, 33690 kPa | 0.07668 ± 0.0016 W/m/K
243.8 K, 33707 kPa | 0.07668 ± 0.0016 W/m/K
271.75 K, 5167 kPa | 0.06405 ± 0.0013 W/m/K
271.76 K, 5170 kPa | 0.06371 ± 0.0013 W/m/K
271.8 K, 431 kPa | 0.06194 ± 0.0013 W/m/K
271.81 K, 411 kPa | 0.06198 ± 0.0013 W/m/K
271.99 K, 24357 kPa | 0.07109 ± 0.0015 W/m/K
271.99 K, 24380 kPa | 0.07115 ± 0.0015 W/m/K
272.01 K, 32229 kPa | 0.0734 ± 0.0015 W/m/K
272.01 K, 32230 kPa | 0.07317 ± 0.0015 W/m/K
272.03 K, 40370 kPa | 0.07538 ± 0.0015 W/m/K
272.04 K, 40373 kPa | 0.07501 ± 0.0015 W/m/K
272.04 K, 46123 kPa | 0.07637 ± 0.0016 W/m/K
272.05 K, 11155 kPa | 0.06578 ± 0.0014 W/m/K
272.05 K, 11165 kPa | 0.06595 ± 0.0014 W/m/K
272.05 K, 46118 kPa | 0.07672 ± 0.0016 W/m/K
272.06 K, 17558 kPa | 0.06827 ± 0.0014 W/m/K
272.07 K, 17554 kPa | 0.06805 ± 0.0014 W/m/K
272.15 K, 5158 kPa | 0.06391 ± 0.0013 W/m/K
272.16 K, 5173 kPa | 0.06421 ± 0.0013 W/m/K
272.21 K, 418 kPa | 0.06216 ± 0.0013 W/m/K
272.21 K, 421 kPa | 0.06256 ± 0.0013 W/m/K
272.49 K, 24363 kPa | 0.06931 ± 0.0014 W/m/K
272.5 K, 32236 kPa | 0.07245 ± 0.0015 W/m/K
272.5 K, 32238 kPa | 0.07194 ± 0.0015 W/m/K
272.5 K, 40381 kPa | 0.07419 ± 0.0015 W/m/K
272.51 K, 40379 kPa | 0.07408 ± 0.0015 W/m/K
272.52 K, 46113 kPa | 0.0755 ± 0.0015 W/m/K
272.52 K, 46119 kPa | 0.07509 ± 0.0015 W/m/K
272.58 K, 5167 kPa | 0.06402 ± 0.0013 W/m/K
272.58 K, 11163 kPa | 0.0662 ± 0.0014 W/m/K
272.58 K, 17548 kPa | 0.06807 ± 0.0014 W/m/K
272.58 K, 17564 kPa | 0.06792 ± 0.0014 W/m/K

Reference: the NIST ThermoML archive (doi:10.1021/acs.jced.8b00132)
